Reference: patent US8318767B2, “Substituted imidazoles as bombesin receptor subtype-3 modulators” (Merck Sharp & Dohme Corp, priority 2006, dated 2012)

The molecules below were run against T1, human BRS-3 (Homo sapiens, UniProt P32247) (assay: Bombesin Receptor Subtype 3 (BRS3) radioligand binding assay). Settings: selected compounds.
T1 construct: expressed in transfected cells
T1 sequence (P32247 1-399): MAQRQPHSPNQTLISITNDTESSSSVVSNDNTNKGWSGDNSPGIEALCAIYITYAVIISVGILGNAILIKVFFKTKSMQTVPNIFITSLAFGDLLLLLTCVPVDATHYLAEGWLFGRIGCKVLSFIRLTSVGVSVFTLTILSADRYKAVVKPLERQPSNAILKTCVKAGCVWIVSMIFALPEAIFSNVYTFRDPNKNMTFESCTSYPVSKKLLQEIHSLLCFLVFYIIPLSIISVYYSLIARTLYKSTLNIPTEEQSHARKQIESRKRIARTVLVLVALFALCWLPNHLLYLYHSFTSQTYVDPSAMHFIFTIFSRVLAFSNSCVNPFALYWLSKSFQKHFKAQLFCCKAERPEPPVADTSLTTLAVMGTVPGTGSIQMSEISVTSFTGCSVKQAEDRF
Procedure: Human embryonic kidney (HEK 293) cells expressing human BRS-3 were cultured to confluence and harvested by aspirating the culture medium and rinsing twice with 1×PBS without Mg^++ and Ca^++. Cellstriper Solution (Cellgrow #25-056-C1, 3 mL) was added to each T-175 flask until all cells dissociated and then an additional 15 mL 1×PBS without Mg^++ and Ca^++ were added to each flask. Dissociated cells were collected by centrifuging at 1000 rpm for 10 minutes. Cell pellets were resuspended and homogenized at 4° C. using a Polytron homogenizer (setting 40, 20 stokes) in approximately 10 mL membrane preparation buffer (10 mM Tris pH 7.4, 0.01 mM Pefabloc, 10 μM phosphoramidon and 40 μg/mL Bacitracin) per T175 flask. After centrifugation at 2200 rpm (1000×g) for 10 minutes at 4° C., the supernatant was transferred to a clean centrifuge tube and spun at 18,000 rpm (38,742×g) for 15 minutes. at 4° C. Membranes were resuspended in the above membrane preparation buffer (1 mL/T-175 flask), homogenized, aliquoted, quickly frozen in liquid nitrogen and stored at −80° C.
For the [^125I]-[D-Tyr^6,β-Ala^11,Phe^13,Nle^14]-Bombesin(6-14), “[^125I]-dY-peptide”, radioligand assay the specific binding of [^125I]-dY-peptide to human BRS3 was measured by filtration assay in 96-well plate format. The receptor membrane (2 μg/well) in binding buffer (50 mM Tris pH 7.4, 5 mM MgCl2, 0.1% BSA and protease inhibitor cocktail) was mixed with compound in DMSO (1% final concentration) and 30 pM [^125I]-dY-peptide. After incubation for 1-2 hours at room temperature, membrane-bound [^125I]-dY-peptide was separated from free [^125I]-dY-peptide by filtering through GF/C filters presoaked in 1% PEI solution. The filters were washed five times with ice-cold washing buffer (1×PBS without Mg^++ and Ca^++). The radioactivity was determined by adding 30 μl of microscintillant/well after each plate was dried at room temperature overnight or placed at 50° C. for 1 hr.
The radioligand, [^3H]-1-{4-[(4,5-difluoro-2-hydroxycarbonylphenyl)phenyl]}-2-(4-cyclohexylmethyl-1H-imidazol-2-yl)ethane, was used for binding to receptor membranes generated with BRS3 from rat and mouse and was also utilized for the human receptor. Cell membranes (5 to 20 μg/well) were added to binding buffer (25 mM Tris pH 7.4, 10 mM MgCl2, 2 mM EDTA and protease I cocktail) containing compound in DMSO (1% final concentration) and 660 pM [^3H]-biphenyl. After incubation for 1-2 hours at room temperature, membrane bound [^3H]-biphenyl was separated from free radiologand by filtering through GF/C filters presoaked in 1% PEI solution. The filters were washed five times with ice-cold washing buffer (50 mM Tris pH 7.4, 10 mM MgCl2, 2.5 mM EDTA and 0.02% Triton X-100). The radioactivity was determined by adding 30 μl of microscintillant/well after each plate was dried at room temperature overnight or placed at 50° C. for 1 hr.
A Packard Top Count was used to read the filter plates. The data in % inhibition of binding was plotted vs. the log molar concentration of receptor ligand (compound). The IC50 was reported as the inflection point of the resulting sigmoidal curve.
The binding assays for the rat and mouse Bombesin Receptor Subtype 3 (BRS3) were performed in a similar fashion.
An NFATCHO cell line stably expressing human BRS3 cDNA was generated using standard cell biology techniques and used to prepare receptor membranes for the human “[^125I]-dY-peptide binding assay. The cell line was cultured in T175 flasks in Iscove's Modified Dulbecco's Medium with L-glutamine and 25 mM HEPES buffer (Gibco #12440-046) supplemented with 10% FBS (cat#SH30070.03, Hyclone, Logan, Utah), 1×HT Supplement (0.1 mM Sodium Hypoxanthine and 16 μM Thymidine Gibco #11067-030), 2 mM L-glutamine (Gibco #25030-081), 100 units/mL Penicillin-G and 100 μg/mL Streptomycin (Gibco #15140-122) and 1 mg/mL Geneticin (Gibco #10131-027).

| IC50 [nM] | SMILES |
| --- | --- |
| 285 | CCC(C)(C)Cc1c[nH]c(C(Cc2ccc(-c3ccc(F)cn3)cc2)NC)n1 (single isomer, unassigned) [Example 6, 1-[4-(2,2-dimethylbutyl)-1H-imidazol-2-yl]-2-[4-(5-fluoropyridin-2-yl)phenyl]-N-methylethanamine] |
| 120 | CC(C)(C)Cc1c[nH]c(C(O)Cc2ccc(-c3ccccn3)cc2)n1 (stereo not drawn) [Example 1, 1-[4-(2,2-dimethylpropyl)-1H-imidazol-2-yl]-2-(4-pyridin-2-ylphenyl)ethanol] |
| 245 | CCNC(Cc1ccc(-c2ccccn2)cc1)c1nc(CC(C)(C)C)c[nH]1 (stereo not drawn) [Example 3, 1-[4-(2,2-dimethylpropyl)-1H-imidazol-2-yl]-N-ethyl-2-(4-pyridin-2-ylphenyl)ethanamine] |
| 220 | CC(=O)NC(Cc1ccc(-c2ccc(F)cn2)cc1)c1nc(CC(C)(C)C)c[nH]1 (stereo not drawn) [Example 9, N-{1-[4-(2,2-dimethylpropyl)-1H-imidazol-2-yl]-2-[4-(5-fluoropyridin-2-yl)phenyl]ethyl}acetamide] |
| 190 | CC(C)(C)Cc1c[nH]c(C(C)(O)Cc2ccc(-c3ccc(F)cn3)cc2)n1 (stereo not drawn) [Example 15, 2-[4-(2,2-dimethylpropyl)-1H-imidazol-2-yl]-1-[4-(5-fluoropyridin-2-yl)phenyl]propan-2-ol] |
| 110 | CC(C)(C)Cc1c[nH]c(C(O)Cc2ccc(-c3ccc(F)cn3)cc2)n1 (stereo not drawn) [Example 18, 1-[4-(2,2-dimethylpropyl)-1H-imidazol-2-yl]-2-[4-(5-fluoropyridin-2-yl)phenyl]ethanol] |
| 58 | CCC(C)(C)Cc1c[nH]c(C(C)(O)Cc2ccc(-c3ccc(F)cn3)cc2)n1 (stereo not drawn) [Example 29, 2-[4-(2,2-dimethylbutyl)-1H-imidazol-2-yl]-1-[4-(5-fluoropyridin-2-yl)phenyl]propan-2-ol] |
| 195 | CC(C)(C)Cc1c[nH]c(C(C)(O)Cc2ccc(-n3cccn3)cc2)n1 (stereo not drawn) [Example 33, 2-[4-(2,2-dimethylpropyl)-1H-imidazol-2-yl]-1-[4-(1H-pyrazol-1-yl)phenyl]propan-2-ol] |
| 5.1 | CCC(C)(C)Cc1c[nH]c(C2(Cc3ccc(-c4ccc(F)cn4)cc3)CCCN2)n1 (stereo not drawn) [Example 55, 2-[4-({2-[4-(2,2-dimethylbutyl)-1H-imidazol-2-yl]pyrrolidin-2-yl}methyl)phenyl]-5-fluoropyridine] |
